Laboratory results from article PMC5218480 (PLoS ONE, 2017).

Tested on: MV-4-11 cells
Assay: Gene expression microarray analysis (Affymetrix PrimeView) and GSEA
Type: cell-based, human
Set-up: RFU PODN (11730768_x_at) / Fold change /veh PODN (11730768_x_at) / RFU LINC00158 (11744669_a_at) / Fold change /veh LINC00158 (11744669_a_at) / RFU DUSP10 (11751237_a_at) / Fold change /veh DUSP10 (11751237_a_at) / RFU ID3 (11757404_x_at) / Fold change /veh ID3 (11757404_x_at) / RFU PLEKHG5 (11737974_s_at) / Fold change /veh PLEKHG5 (11737974_s_at) / RFU LRRC4B (11730491_at) / Fold change /veh LRRC4B (11730491_at) / RFU GIMAP4 (11747438_a_at) / Fold change /veh GIMAP4 (11747438_a_at) / RFU KRT8 (11758183_x_at) / Fold change /veh KRT8 (11758183_x_at) / RFU CNN1 (11734310_a_at) / Fold change /veh CNN1 (11734310_a_at) / RFU VPS37D (11726825_at) / Fold change /veh VPS37D (11726825_at) / RFU C10orf10 (11716522_x_at) / Fold change /veh C10orf10 (11716522_x_at) / RFU KIR2DL2 /// KIR2DL4 /// KIR2DL5A /// KIR2DL5B /// KIR2DS1 /// KIR2DS2 /// KIR2DS3 /// KIR2DS4 /// KIR3DL3 /// KIR3DL3 /// KIR3DS1 (11738374_at) / Fold change /veh KIR2DL2 /// KIR2DL4 /// KIR2DL5A /// KIR2DL5B /// KIR2DS1 /// KIR2DS2 /// KIR2DS3 /// KIR2DS4 /// KIR3DL3 /// KIR3DL3 /// KIR3DS1 (11738374_at) / RFU C1QL1 (11718748_at) / Fold change /veh C1QL1 (11718748_at) / RFU TMPRSS4 (11747572_a_at) / Fold change /veh TMPRSS4 (11747572_a_at) / RFU HAMP (11756126_x_at) / Fold change /veh HAMP (11756126_x_at) / RFU RNFT2 (11725882_a_at) / Fold change /veh RNFT2 (11725882_a_at) / RFU NR4A2 (11747474_a_at) / Fold change /veh NR4A2 (11747474_a_at) / RFU ABCC12 (11746883_a_at) / Fold change /veh ABCC12 (11746883_a_at) / RFU TMEM136 (11760407_x_at) / Fold change /veh TMEM136 (11760407_x_at) / RFU CLDN22 /// WWC2 (11732394_at) / Fold change /veh CLDN22 /// WWC2 (11732394_at) / RFU HLA-DPB1 (11760878_x_at) / Fold change /veh HLA-DPB1 (11760878_x_at) / RFU SPINT1 (11716480_a_at) / Fold change /veh SPINT1 (11716480_a_at) / RFU GAP43 (11754022_s_at) / Fold change /veh GAP43 (11754022_s_at) / RFU A4GNT (11735810_at) / Fold change /veh A4GNT (11735810_at) / RFU PRB3 (11715151_x_at) / Fold change /veh PRB3 (11715151_x_at) / RFU TUBB4B (11761932_at) / Fold change /veh TUBB4B (11761932_at) / RFU CAPN14 (11732068_a_at) / Fold change /veh CAPN14 (11732068_a_at) / RFU TMCC2 (11721928_a_at) / Fold change /veh TMCC2 (11721928_a_at) / RFU IRGQ (11745062_a_at) / Fold change /veh IRGQ (11745062_a_at) / RFU FAM174B (11720279_a_at) / Fold change /veh FAM174B (11720279_a_at) / RFU TMPRSS4 (11748680_a_at) / Fold change /veh TMPRSS4 (11748680_a_at) / RFU FAM212B (11763350_a_at) / Fold change /veh FAM212B (11763350_a_at) / RFU PLEKHG5 (11743358_a_at) / Fold change /veh PLEKHG5 (11743358_a_at) / RFU ZSCAN30 (11745921_a_at) / Fold change /veh ZSCAN30 (11745921_a_at) / RFU CMKLR1 (11741424_a_at) / Fold change /veh CMKLR1 (11741424_a_at) / RFU LOC101060620 /// MAPK8IP1 (11723275_at) / Fold change /veh LOC101060620 /// MAPK8IP1 (11723275_at) / RFU SPTSSB (11747773_x_at) / Fold change /veh SPTSSB (11747773_x_at) / RFU PRSS12 (11739890_at) / Fold change /veh PRSS12 (11739890_at) / RFU BIN1 (11741810_x_at) / Fold change /veh BIN1 (11741810_x_at) / RFU WNT11 (11732464_a_at) / Fold change /veh WNT11 (11732464_a_at) / RFU C10orf10 (11716521_a_at) / Fold change /veh C10orf10 (11716521_a_at) / RFU C5orf56 (11738089_at) / Fold change /veh C5orf56 (11738089_at) / RFU CYB561 (11721691_x_at) / Fold change /veh CYB561 (11721691_x_at) / RFU ANKRD19P (11752326_a_at) / Fold change /veh ANKRD19P (11752326_a_at) / RFU OR2T12 /// OR2T33 /// OR2T8 (11738714_s_at) / Fold change /veh OR2T12 /// OR2T33 /// OR2T8 (11738714_s_at) / RFU VCAN (11748164_a_at) / Fold change /veh VCAN (11748164_a_at) / RFU JSRP1 (11732532_at) / Fold change /veh JSRP1 (11732532_at) / RFU KRTAP10-11 (11738290_x_at) / Fold change /veh KRTAP10-11 (11738290_x_at) / RFU MYO3A (11730013_a_at) / Fold change /veh MYO3A (11730013_a_at) / RFU EBF3 (11725865_a_at) / Fold change /veh EBF3 (11725865_a_at) / RFU CAMK2N1 (11719241_x_at) / Fold change /veh CAMK2N1 (11719241_x_at) / RFU C5orf56 (11738088_a_at) / Fold change /veh C5orf56 (11738088_a_at) / RFU OLFML3 (11715873_a_at) / Fold change /veh OLFML3 (11715873_a_at) / RFU LOC100653217 /// NTM (11731650_a_at) / Fold change /veh LOC100653217 /// NTM (11731650_a_at) / RFU MAPK11 (11762145_a_at) / Fold change /veh MAPK11 (11762145_a_at) / RFU FIZ1 (11724087_x_at) / Fold change /veh FIZ1 (11724087_x_at) / RFU OASL (11726364_x_at) / Fold change /veh OASL (11726364_x_at) / RFU SOX15 (11748057_x_at) / Fold change /veh SOX15 (11748057_x_at) / RFU CD79A (11719716_a_at) / Fold change /veh CD79A (11719716_a_at) / RFU HIST1H1D (11736915_at) / Fold change /veh HIST1H1D (11736915_at) / RFU CASKIN2 (11723855_a_at) / Fold change /veh CASKIN2 (11723855_a_at) / RFU LOC730098 (11760151_x_at) / Fold change /veh LOC730098 (11760151_x_at) / RFU OR4N2 (11742367_at) / Fold change /veh OR4N2 (11742367_at) / RFU PRRT2 (11749266_a_at) / Fold change /veh PRRT2 (11749266_a_at) / RFU SNX32 (11753110_a_at) / Fold change /veh SNX32 (11753110_a_at) / RFU CDHR5 (11726645_a_at) / Fold change /veh CDHR5 (11726645_a_at) / RFU RCAN1 (11760418_a_at) / Fold change /veh RCAN1 (11760418_a_at) / RFU FAM167A (11723789_a_at) / Fold change /veh FAM167A (11723789_a_at) / RFU FAM26E (11764081_at) / Fold change /veh FAM26E (11764081_at) / RFU ISYNA1 (11749810_s_at) / Fold change /veh ISYNA1 (11749810_s_at) / RFU ACY1 (11761880_at) / Fold change /veh ACY1 (11761880_at) / RFU 11764098_at / Fold change /veh 11764098_at / RFU SAMD14 (11745864_x_at) / Fold change /veh SAMD14 (11745864_x_at) / RFU NPB (11741838_a_at) / Fold change /veh NPB (11741838_a_at) / RFU TMPRSS6 (11731388_a_at) / Fold change /veh TMPRSS6 (11731388_a_at) / RFU KRTAP10-2 (11738614_at) / Fold change /veh KRTAP10-2 (11738614_at) / RFU ARHGAP8 /// PRR5-ARHGAP8 (11727945_x_at) / Fold change /veh ARHGAP8 /// PRR5-ARHGAP8 (11727945_x_at) / RFU KRTAP5-7 /// NADSYN1 (11734609_at) / Fold change /veh KRTAP5-7 /// NADSYN1 (11734609_at) / RFU RASL12 (11751679_a_at) / Fold change /veh RASL12 (11751679_a_at) / RFU CDKN2B (11736163_a_at) / Fold change /veh CDKN2B (11736163_a_at) / RFU PRF1 (11729649_at) / Fold change /veh PRF1 (11729649_at) / RFU, ZNF638 /// ZNF638-IT1 / Fold change vs veh, ZNF638 /// ZNF638-IT1 / RFU, PANK3 / Fold change vs veh, PANK3 / RFU, SH3YL1 / Fold change vs veh, SH3YL1 / RFU, ZEB2 / Fold change vs veh, ZEB2 / RFU, NRIP1 / Fold change vs veh, NRIP1 / RFU, PTTG1IP / Fold change vs veh, PTTG1IP / RFU, CAPN2 / Fold change vs veh, CAPN2 / RFU, MED14 / Fold change vs veh, MED14 / RFU, SNORA58 / Fold change vs veh, SNORA58 / RFU, C1orf63 / Fold change vs veh, C1orf63 / RFU, LRRFIP1 / Fold change vs veh, LRRFIP1 / RFU, NDUFAF7 / Fold change vs veh, NDUFAF7 / RFU, SLC12A2 / Fold change vs veh, SLC12A2 / RFU, IBTK / Fold change vs veh, IBTK / RFU, ESF1 / Fold change vs veh, ESF1 / Fold change vs veh, TMEM50B / RFU, TAOK1 / Fold change vs veh, TAOK1 / RFU, ACBD3 / Fold change vs veh, ACBD3 / RFU, TMA16 / Fold change vs veh, TMA16 / RFU, RWDD3 / Fold change vs veh, RWDD3 / RFU, BCAT1 / Fold change vs veh, BCAT1 / RFU, EDEM3 / Fold change vs veh, EDEM3 / RFU, TMEM33 / Fold change vs veh, TMEM33 / RFU, WDR75 / Fold change vs veh, WDR75 / RFU, AHCTF1 / Fold change vs veh, AHCTF1 / RFU, TFRC / Fold change vs veh, TFRC / RFU, ZDHHC17 / Fold change vs veh, ZDHHC17 / RFU, NOM1 / Fold change vs veh, NOM1 / RFU, ARL8B / Fold change vs veh, ARL8B / RFU, ZBTB11 / Fold change vs veh, ZBTB11 / RFU, TAMM41 / Fold change vs veh, TAMM41 / RFU, KIAA1704 /// LOC100996395 / Fold change vs veh, KIAA1704 /// LOC100996395 / RFU, ING1 / Fold change vs veh, ING1 / RFU, TRMT61B / Fold change vs veh, TRMT61B / RFU, FUBP3 / Fold change vs veh, FUBP3 / RFU, TP53 / Fold change vs veh, TP53 / RFU, TNKS2 / Fold change vs veh, TNKS2 / RFU, ZFP14 / Fold change vs veh, ZFP14 / RFU, ACTR2 / Fold change vs veh, ACTR2 / RFU, PPP3R1 / Fold change vs veh, PPP3R1 / RFU, PIK3R1 / Fold change vs veh, PIK3R1 / RFU, HNRNPA1 / Fold change vs veh, HNRNPA1 / RFU, RNF170 / Fold change vs veh, RNF170 / RFU, ZNF28 / Fold change vs veh, ZNF28 / RFU, RNGTT / Fold change vs veh, RNGTT / RFU, OGT / Fold change vs veh, OGT / RFU, BRD1 / Fold change vs veh, BRD1 / RFU, MARS / Fold change vs veh, MARS / RFU, ZNF655 / Fold change vs veh, ZNF655 / RFU, FAHD1 / Fold change vs veh, FAHD1 / RFU, BDP1 / Fold change vs veh, BDP1 / RFU, LRRCC1 / Fold change vs veh, LRRCC1 / RFU, ARID1A / Fold change vs veh, ARID1A / RFU, ZNF146 / Fold change vs veh, ZNF146 / RFU, ZNF330 / Fold change vs veh, ZNF330 / RFU, GPN3 / Fold change vs veh, GPN3 / RFU, C9orf123 / Fold change vs veh, C9orf123 / RFU, N4BP2L2 / Fold change vs veh, N4BP2L2 / RFU, ARFIP1 / Fold change vs veh, ARFIP1 / RFU, FAM179B / Fold change vs veh, FAM179B / RFU, BCL10 / Fold change vs veh, BCL10 / RFU, UHRF1BP1L / Fold change vs veh, UHRF1BP1L / RFU, BET1 / Fold change vs veh, BET1 / RFU, CNOT2 / Fold change vs veh, CNOT2 / RFU, ZNF268 / Fold change vs veh, ZNF268 / Fold change vs veh, ZNF507 / RFU, DGCR2 / Fold change vs veh, DGCR2 / RFU, WDSUB1 / Fold change vs veh, WDSUB1 / Fold change vs veh, HSP90B1 /// MIR3652 / RFU, ADSS / Fold change vs veh, ADSS / RFU, GK / Fold change vs veh, GK / RFU, ZNF148 / Fold change vs veh, ZNF148 / RFU, TAF9 / Fold change vs veh, TAF9 / RFU, SLC1A5 / Fold change vs veh, SLC1A5 / RFU, SLMO2 / Fold change vs veh, SLMO2 / RFU, ABCC4 / Fold change vs veh, ABCC4 / RFU, LOC101060439 /// RAP1B / Fold change vs veh, LOC101060439 /// RAP1B / RFU, RFX7 / Fold change vs veh, RFX7 / RFU, GTPBP10 / Fold change vs veh, GTPBP10 / RFU, CNEP1R1 / Fold change vs veh, CNEP1R1 / RFU, BIVM-ERCC5 /// ERCC5 / Fold change vs veh, BIVM-ERCC5 /// ERCC5 / RFU, ILF3 / Fold change vs veh, ILF3 / RFU 11762660_at / Fold change /veh 11762660_at / RFU VCAN (11757783_s_at) / Fold change /veh VCAN (11757783_s_at) / RFU DDX43 (11728927_at) / Fold change /veh DDX43 (11728927_at) / RFU KRT8 (11758188_x_at) / Fold change /veh KRT8 (11758188_x_at) / RFU NKD1 (11759106_at) / Fold change /veh NKD1 (11759106_at) / RFU SRD5A1 (11742802_a_at) / Fold change /veh SRD5A1 (11742802_a_at) / RFU TPSAB1 /// TPSB2 (11721975_s_at) / Fold change /veh TPSAB1 /// TPSB2 (11721975_s_at) / RFU GSTM3 (11746129_a_at) / Fold change /veh GSTM3 (11746129_a_at) / RFU IL23R (11737362_x_at) / Fold change /veh IL23R (11737362_x_at) / RFU TMEM51 (11727254_a_at) / Fold change /veh TMEM51 (11727254_a_at) / RFU PIWIL2 (11732686_x_at) / Fold change /veh PIWIL2 (11732686_x_at) / RFU ORM1 (11744905_x_at) / Fold change /veh ORM1 (11744905_x_at) / RFU CCDC152 (11743942_at) / Fold change /veh CCDC152 (11743942_at) / RFU ECM1 (11717891_a_at) / Fold change /veh ECM1 (11717891_a_at) / RFU IL23R (11748794_a_at) / Fold change /veh IL23R (11748794_a_at) / RFU TNFAIP8L3 (11732012_x_at) / Fold change /veh TNFAIP8L3 (11732012_x_at) / RFU MBOAT4 (11741988_at) / Fold change /veh MBOAT4 (11741988_at) / RFU 11764193_at / Fold change /veh 11764193_at / RFU TMEM53 (11763286_at) / Fold change /veh TMEM53 (11763286_at) / RFU MAGEB2 (11727129_at) / Fold change /veh MAGEB2 (11727129_at) / RFU TMEM200A (11744735_a_at) / Fold change /veh TMEM200A (11744735_a_at) / RFU CCDC152 (11751479_a_at) / Fold change /veh CCDC152 (11751479_a_at) / RFU FAM211A (11726209_a_at) / Fold change /veh FAM211A (11726209_a_at) / RFU RGS16 (11746705_a_at) / Fold change /veh RGS16 (11746705_a_at) / RFU VCAN (11755009_s_at) / Fold change /veh VCAN (11755009_s_at) / RFU RHOB (11743442_s_at) / Fold change /veh RHOB (11743442_s_at) / RFU RGS16 (11720943_a_at) / Fold change /veh RGS16 (11720943_a_at) / RFU RGS16 (11720944_at) / Fold change /veh RGS16 (11720944_at) / RFU, VPS4B / Fold change vs veh, VPS4B / RFU, CREB1 / Fold change vs veh, CREB1 / RFU, DNAJC13 / Fold change vs veh, DNAJC13 / RFU, GNAQ / Fold change vs veh, GNAQ / RFU, CDK5R1 / Fold change vs veh, CDK5R1 / RFU, ZRANB3 / Fold change vs veh, ZRANB3 / RFU, CUL4A / Fold change vs veh, CUL4A / RFU, CCNY / Fold change vs veh, CCNY / RFU, UFL1 / Fold change vs veh, UFL1 / RFU, COG3 / Fold change vs veh, COG3 / RFU, DIAPH2 / Fold change vs veh, DIAPH2 / RFU, SKA2 / Fold change vs veh, SKA2 / RFU, AFF3 / Fold change vs veh, AFF3 / RFU, LMF1 / Fold change vs veh, LMF1 / RFU, IPO11 / Fold change vs veh, IPO11 / RFU, DFFB / Fold change vs veh, DFFB / RFU, FOXP1 / Fold change vs veh, FOXP1 / RFU, CARD8 / Fold change vs veh, CARD8 / RFU, STRN3 / Fold change vs veh, STRN3 / RFU, ADK / Fold change vs veh, ADK / RFU, RASSF2 / Fold change vs veh, RASSF2 / RFU, WIPF1 / Fold change vs veh, WIPF1 / RFU, LARP1B / Fold change vs veh, LARP1B / RFU, RASA1 / Fold change vs veh, RASA1 / RFU, RB1 / Fold change vs veh, RB1 / RFU, PPFIA1 / Fold change vs veh, PPFIA1 / RFU, MAT2A / Fold change vs veh, MAT2A / RFU, CCT5 / Fold change vs veh, CCT5 / RFU, WDR92 / Fold change vs veh, WDR92 / RFU, CUX1 / Fold change vs veh, CUX1 / RFU, TTC7A / Fold change vs veh, TTC7A / RFU, TMEM135 / Fold change vs veh, TMEM135 / RFU, DEPTOR / Fold change vs veh, DEPTOR / RFU, CPM / Fold change vs veh, CPM / RFU, DNAJB6 / Fold change vs veh, DNAJB6 / RFU, CACNA2D3 / Fold change vs veh, CACNA2D3 / RFU, DTX4 / Fold change vs veh, DTX4 / RFU, TFCP2 / Fold change vs veh, TFCP2 / RFU, GMCL1 /// GMCL1P1 / Fold change vs veh, GMCL1 /// GMCL1P1 / RFU, AEBP2 / Fold change vs veh, AEBP2 / RFU, SNHG1 /// SNORD22 /// SNORD25 /// SNORD26 /// SNORD27 /// SNORD28 /// SNORD29 /// SNORD31 / Fold change vs veh, SNHG1 /// SNORD22 /// SNORD25 /// SNORD26 /// SNORD27 /// SNORD28 /// SNORD29 /// SNORD31 / Fold change (Aza/veh), C12orf56 (ProbeSet 11735607_a_at) / Fold change (ACY-1035/veh), C12orf56 (ProbeSet 11735607_a_at) / Fold change (Aza/veh), FGFR1OP (ProbeSet 11751329_s_at) / Fold change (ACY-1035/veh), FGFR1OP (ProbeSet 11751329_s_at) / Fold change (Aza/veh), VPS36 (ProbeSet 11739960_a_at) / Fold change (ACY-1035/veh), VPS36 (ProbeSet 11739960_a_at) / RFU SYPL1 (11715823_x_at) / Fold change /veh SYPL1 (11715823_x_at) / RFU IGFBP7 (11715501_s_at) / Fold change /veh IGFBP7 (11715501_s_at) / RFU REEP3 (11722064_at) / Fold change /veh REEP3 (11722064_at) / RFU IGLL1 (11728026_x_at) / Fold change /veh IGLL1 (11728026_x_at): dose or concentration left out as unconfirmed
Conditions: ProbeSet 11733108_at; LIST D

Structure (SMILES): Nc1ccc(-c2cccs2)cc1NC(=O)c1ccc2c(c1)cc(C1CC1)n2CCN1CCOCC1 [ACY-1035]
- RFU, GNAQ: 275.03 RFU
